Legend:
in vitro = settings: human
Description: 96-well plates were coated with 100 μl of KIP-1 antibody per well at 1 μg/ml in PBS and plates were incubated at 4° C. overnight. CAR-T cells were thawed and were rested in ImmunoCult expansion medium and incubated overnight at 37° C. Cells were then counted and resuspended at 2 million cells/ml and seed at 200,000 cells per well in 100 μl of expansion medium with 10 ng/ml recombinant IL2. For groups treated with KIP-1, 100 μl of expansion medium were added with 2× final drug dilutions. For CD3/CD28 treated groups, 100 μl of expansion media were added with 2× final drug dilutions containing 25 μl/ml of CD3/CD28 T cell activator from StemCell Technologies. Cells were then incubated at 37° C. After 4 days, cells were counted and diluted 1 to 8-fold in expansion media and then transferred to a 24-well plate. Cell counts were repeated at day 7 and transferred to T25 flasks. On day 11, all cells were harvested and counted.

[1] = tested on: phospho-STAT panel (pSTAT3/4/5), CD3+ T cells; experiment: phospho-STAT induction by IL-6, MesoScale Discovery phospho-STAT panel; type: cell-based, human; settings: for pSTAT3 / pSTAT4 / pSTAT5: CD3+ T cells
Description: CD19 CAR-T, PBMC or CD3+ T cells (AllCells) were thawed and rested 0/N at 37° C. in R10 media. Cells were seeded at 700,000 cells/well and were either untreated or treated with 100 ng/ml IL6+drug at indicated concentrations for 20 minutes at 37° C. The cells were then washed with cold PBS and followed by 60 μl of Tris lysis buffer (provided by MSD) for 30 minutes on ice. Lysates were collected by spin down for 10 minutes at >10,000 rpm. 25 μl/well per condition was used for MesoScale Discovery (MSD) assay using the phospho-STAT panel (pSTAT3/4/5) from MesoScale Discovery following the manufacturer's protocol. pSTAT panel plates were blocked with 150 μl of blocker A solution for 1 hr at RT with shaking. Plates were washed three times with 1× Tris wash buffer. 25 μl of lysate samples were added per well, incubated 2 hr at room temperature or at 4° C. overnight. Plates were washed 3 times with 1× tris wash buffer and then 25 μl of detection antibody solution were added to each well and incubated for 1 hr at room temperature with shaking. Plates were washed and 1× read buffer added to each well and plates were read on the MSD instrument.

Nalm-6 luc = experiment: CAR-T cell killing assay (luciferase viability of tumor cells)
[2] = Clinical pharmacokinetic data converted to in vitro concentrations; settings: human, in vivo
Description: Given the different potencies of the JAK inhibitors and different pharmacokinetic properties for each drug, it was sought to test each drug at a relevant range of physiological concentrations based on clinical dosing and reported pharmacokinetic data from repeat dose studies. Reported Cmax values in patient sera were converted to in vitro concentrations and adjusted for reported plasma protein binding.

[3] = 100 ng/ml IL-6 + drug 10 uM, 20 min, MSD signal (No stim. 689, IL-6 alone 33641)
[4] = 100 ng/ml IL-6 + drug 10 uM, 20 min, MSD signal (No stim. 1964, IL-6 alone 15405)
[5] = 100 ng/ml IL-6 + drug 10 uM, 20 min, MSD signal (No stim. 9210, IL-6 alone 17743)
[6] = IL-6 + drug 0.125 uM, MSD signal (No stim. 689, IL-6 alone 33641)
[7] = IL-6 + drug 0.125 uM, MSD signal (No stim. 1964, IL-6 alone 15405)
[8] = IL-6 + drug 0.125 uM, MSD signal (No stim. 9210, IL-6 alone 17743)
[9] = IL-6 + drug 0.5 uM, MSD signal (No stim. 689, IL-6 alone 33641)
[10] = IL-6 + drug 0.5 uM, MSD signal (No stim. 1964, IL-6 alone 15405)
[11] = IL-6 + drug 0.5 uM, MSD signal (No stim. 9210, IL-6 alone 17743)
[12] = IL-6 + drug 1 uM, MSD signal (No stim. 689, IL-6 alone 33641)
[13] = IL-6 + drug 1 uM, MSD signal (No stim. 1964, IL-6 alone 15405)
[14] = IL-6 + drug 1 uM, MSD signal (No stim. 9210, IL-6 alone 17743)
[15] = IL-6 + drug 5 uM, MSD signal (No stim. 689, IL-6 alone 33641)
[16] = IL-6 + drug 5 uM, MSD signal (No stim. 1964, IL-6 alone 15405)
[17] = IL-6 + drug 5 uM, MSD signal (No stim. 9210, IL-6 alone 17743)

SMILES: C[C@@H]1C[C@H]2[C@@H]3CCC4=CC(=O)C=C[C@]4(C)[C@@]3(F)[C@@H](O)C[C@]2(C)[C@@]1(O)C(=O)CO [dexamethasone]
- viability at 0 day, 50 nM (in vitro; CAR-T cells): 75%
- viability at 0 day, 100 nM (in vitro; CAR-T cells): 75%
- viability at 4 day, 50 nM (in vitro; CAR-T cells): 65.9%
- viability at 4 day, 100 nM (in vitro; CAR-T cells): 52.8%
- viability at 8 day, 50 nM (in vitro; CAR-T cells): 53.8%
- viability at 8 day, 100 nM (in vitro; CAR-T cells): 56.6%
- viability at 12 day, 50 nM (in vitro; CAR-T cells): 67.8%
- viability at 12 day, 100 nM (in vitro; CAR-T cells): 56.5%
- pSTAT3 [1, 3]: 25688
- pSTAT4 [1, 4]: 11588
- pSTAT5 [1, 5]: 14850
- pSTAT3 [1, 6]: 26776
- pSTAT4 [1, 7]: 14052
- pSTAT5 [1, 8]: 16019
- pSTAT3 [1, 9]: 28004
- pSTAT4 [1, 10]: 15286
- pSTAT5 [1, 11]: 18936
- pSTAT3 [1, 12]: 27312
- pSTAT4 [1, 13]: 15357
- pSTAT5 [1, 14]: 18209
- pSTAT3 [1, 15]: 24869
- pSTAT4 [1, 16]: 11925
- pSTAT5 [1, 17]: 15761
- Mean tumor cell death (%) (Nalm-6 luc; E:T ratio 1:1, dose 10 nM): 98.09%
- Mean tumor cell death (%) (Nalm-6 luc; E:T ratio 1:1, dose 100 nM): 92.30%
- Mean tumor cell death (%) (Nalm-6 luc; E:T ratio 1:1, dose 250 nM): 97.15%
- Mean tumor cell death (%) (Nalm-6 luc; E:T ratio 1:3, dose 10 nM): 34.66%
- Mean tumor cell death (%) (Nalm-6 luc; E:T ratio 1:3, dose 100 nM): 19.94%
- Mean tumor cell death (%) (Nalm-6 luc; E:T ratio 1:3, dose 250 nM): 20.38%
- Mean tumor cell death (%) (Nalm-6 luc; E:T ratio 1:9, dose 10 nM): 7.08%
- Mean tumor cell death (%) (Nalm-6 luc; E:T ratio 1:9, dose 100 nM): 3.02%
- Mean tumor cell death (%) (Nalm-6 luc; E:T ratio 1:9, dose 250 nM): 2.48%
- PPB adj. in Vitro concentration [2]: 67.4 nM
- clinically relevant dose level (in vitro concentration) [2]: ~70 nM

SMILES: C[C@@H]1CCN(C(=O)CC#N)C[C@@H]1N(C)c1ncnc2[nH]ccc12 [tofacitinib]
- viability at 0 day, 50 nM (in vitro): 75%
- viability at 0 day, 100 nM (in vitro): 75%
- viability at 4 day, 50 nM (in vitro): 67.7%
- viability at 4 day, 100 nM (in vitro): 61.8%
- viability at 8 day, 50 nM (in vitro): 74.2%
- viability at 8 day, 100 nM (in vitro): 64.7%
- viability at 12 day, 50 nM (in vitro): 80.1%
- viability at 12 day, 100 nM (in vitro): 85.2%
- pSTAT3 [1, 3]: 2238
- pSTAT4 [1, 4]: 2159
- pSTAT5 [1, 5]: 1431
- pSTAT3 [1, 6]: 7733
- pSTAT4 [1, 7]: 3698
- pSTAT5 [1, 8]: 2424
- pSTAT3 [1, 9]: 3382
- pSTAT4 [1, 10]: 2503
- pSTAT5 [1, 11]: 1756
- pSTAT3 [1, 12]: 2301
- pSTAT4 [1, 13]: 2259
- pSTAT5 [1, 14]: 1528
- pSTAT3 [1, 15]: 2165
- pSTAT4 [1, 16]: 2033
- pSTAT5 [1, 17]: 1421
- effect on phosphorylated-STAT-1, STAT-3 and STAT-5 levels ([1]; IL-6 stimulation 100 ng/ml, 20 minutes, 10 μM to 0.125 μM): reduction of phosphorylated-STAT-1, STAT-3 and STAT-5 levels in a dose-responsive manner
- pSTAT3 ([1]; lower dose titration, IL-6 + drug 3.125 nM, MSD signal (No stim. 123, IL-6 alone 5767)): 5917
- pSTAT4 ([1]; lower dose titration, IL-6 + drug 3.125 nM, MSD signal (No stim. 281, IL-6 alone 3624)): 3525
- pSTAT5 ([1]; lower dose titration, IL-6 + drug 3.125 nM, MSD signal (No stim. 324, IL-6 alone 2352)): 1810
- pSTAT3 ([1]; lower dose titration, IL-6 + drug 6.25 nM, MSD signal (No stim. 123, IL-6 alone 5767)): 4586
- pSTAT4 ([1]; lower dose titration, IL-6 + drug 6.25 nM, MSD signal (No stim. 281, IL-6 alone 3624)): 3455
- pSTAT5 ([1]; lower dose titration, IL-6 + drug 6.25 nM, MSD signal (No stim. 324, IL-6 alone 2352)): 1808
- pSTAT3 ([1]; lower dose titration, IL-6 + drug 12.5 nM, MSD signal (No stim. 123, IL-6 alone 5767)): 3998
- pSTAT4 ([1]; lower dose titration, IL-6 + drug 12.5 nM, MSD signal (No stim. 281, IL-6 alone 3624)): 2304
- pSTAT5 ([1]; lower dose titration, IL-6 + drug 12.5 nM, MSD signal (No stim. 324, IL-6 alone 2352)): 1187
- pSTAT3 ([1]; lower dose titration, IL-6 + drug 25 nM, MSD signal (No stim. 123, IL-6 alone 5767)): 3115
- pSTAT4 ([1]; lower dose titration, IL-6 + drug 25 nM, MSD signal (No stim. 281, IL-6 alone 3624)): 1982
- pSTAT5 ([1]; lower dose titration, IL-6 + drug 25 nM, MSD signal (No stim. 324, IL-6 alone 2352)): 914
- pSTAT3 ([1]; lower dose titration, IL-6 + drug 50 nM, MSD signal (No stim. 123, IL-6 alone 5767)): 2148
- pSTAT4 ([1]; lower dose titration, IL-6 + drug 50 nM, MSD signal (No stim. 281, IL-6 alone 3624)): 1499
- pSTAT5 ([1]; lower dose titration, IL-6 + drug 50 nM, MSD signal (No stim. 324, IL-6 alone 2352)): 703
- pSTAT3 ([1]; lower dose titration, IL-6 + drug 100 nM, MSD signal (No stim. 123, IL-6 alone 5767)): 1006
- pSTAT4 ([1]; lower dose titration, IL-6 + drug 100 nM, MSD signal (No stim. 281, IL-6 alone 3624)): 918
- pSTAT5 ([1]; lower dose titration, IL-6 + drug 100 nM, MSD signal (No stim. 324, IL-6 alone 2352)): 513
- Mean tumor cell death (%) (Nalm-6 luc; E:T ratio 1:1, dose 10 nM): 98.6%
- Mean tumor cell death (%) (Nalm-6 luc; E:T ratio 1:1, dose 20 nM): 98.4%
- Mean tumor cell death (%) (Nalm-6 luc; E:T ratio 1:1, dose 40 nM): 96.1%
- Mean tumor cell death (%) (Nalm-6 luc; E:T ratio 1:1, dose 60 nM): 97.9%
- Mean tumor cell death (%) (Nalm-6 luc; E:T ratio 1:1, dose 80 nM): 98%
- Mean tumor cell death (%) (Nalm-6 luc; E:T ratio 1:1, dose 100 nM): 97.2%
- Mean tumor cell death (%) (Nalm-6 luc; E:T ratio 1:3, dose 10 nM): 83.2%
- Mean tumor cell death (%) (Nalm-6 luc; E:T ratio 1:3, dose 20 nM): 87.3%
- Mean tumor cell death (%) (Nalm-6 luc; E:T ratio 1:3, dose 40 nM): 85.5%
- Mean tumor cell death (%) (Nalm-6 luc; E:T ratio 1:3, dose 60 nM): 75.7%
- Mean tumor cell death (%) (Nalm-6 luc; E:T ratio 1:3, dose 80 nM): 66.6%
- Mean tumor cell death (%) (Nalm-6 luc; E:T ratio 1:3, dose 100 nM): 46.8%
- Mean tumor cell death (%) (Nalm-6 luc; E:T ratio 1:9, dose 10 nM): 37%
- Mean tumor cell death (%) (Nalm-6 luc; E:T ratio 1:9, dose 20 nM): 28.9%
- Mean tumor cell death (%) (Nalm-6 luc; E:T ratio 1:9, dose 40 nM): 36%
- Mean tumor cell death (%) (Nalm-6 luc; E:T ratio 1:9, dose 60 nM): 40.5%
- Mean tumor cell death (%) (Nalm-6 luc; E:T ratio 1:9, dose 80 nM): 28.2%
- Mean tumor cell death (%) (Nalm-6 luc; E:T ratio 1:9, dose 100 nM): 25.6%

From patent US12252701B2, “Chimeric antigen receptor T cell therapy” (KITE PHARMA, INC., priority 2020, dated 2025)
